# According to PMC3859622, “Functional Characterization of ECP-Heparin Interaction: A Novel Molecular Model” (PLoS ONE, 2013):
# Where a chain is given by its changes, count along the chain named. Names and notes keep the numbering of the source. Values joined by “and” are separate entries in the source; they are usually repeats but may differ in a detail not shown here. Identical values can stand only once. Like-named read-outs stand apart in the source and are kept apart here.
# T1: ECP H64A (Homo sapiens, UniProt P12724, H91A)
# T1 sequence (P12724 28-160 H91A): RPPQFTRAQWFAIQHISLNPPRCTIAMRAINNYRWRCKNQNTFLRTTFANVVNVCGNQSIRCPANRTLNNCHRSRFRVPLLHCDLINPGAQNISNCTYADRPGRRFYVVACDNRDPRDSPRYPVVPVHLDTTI
# T2: ECP Q40A/H64A (Homo sapiens, UniProt P12724, H91A/Q67A)
# T2 sequence (P12724 28-160 Q67A/H91A): T1 sequence (P12724 28-160 H91A) with Q40A
# T3: ECP R105A (Homo sapiens, UniProt P12724, R132A)
# T3 sequence (P12724 28-160 R132A): T1 sequence (P12724 28-160 H91A) with A64H, R105A
# T4: wtECP (Homo sapiens, UniProt P12724)
# T4 construct: His6 (C); made in house; host or cells: Escherichia coli BL21 (DE3) CodonPlus
# T4 sequence (P12724 28-160): T1 sequence (P12724 28-160 H91A) with A64H
# T5: ECP Q40A (Homo sapiens, UniProt P12724, Q67A)
# T5 sequence (P12724 28-160 Q67A): T1 sequence (P12724 28-160 H91A) with Q40A, A64H
# B1: Bovine RNase A: bovine pancreatic RNaseA (USB), positive control (protein, UniProt P61823 27-150, looked up)
# Ribonuclease pancreatic: KETAAAKFERQHMDSSTSAASSSNYCNQMMKSRNLTKDRCKPVNTFVHESLADVQAVCSQKNVACKNGQTNCYQSYSTMSITDCRETGSSKYPNCAYKTTQANKHIIVACEGNPYVPVHFDASV
# B2: wtECP: recombinant wild type human eosinophil cationic protein with C-terminal His6 tag, refolded from E. coli (protein, UniProt P12724 28-160, looked up)
# Eosinophil cationic protein: T1 sequence (P12724 28-160 H91A) with A64H
# modifications: C-terminal His6 tag
# B3: Q40A: single mutant recombinant ECP, Gln40 to Ala (protein, UniProt P12724 28-160, looked up, variant Q40A)
# Eosinophil cationic protein: T1 sequence (P12724 28-160 H91A) with Q40A, A64H
# B4: H64A: single mutant recombinant ECP, His64 to Ala (protein, UniProt P12724 28-160, looked up, variant H64A)
# Eosinophil cationic protein: T1 sequence (P12724 28-160 H91A)
# B5: R105A: single mutant recombinant ECP, Arg105 to Ala (protein, UniProt P12724 28-160, looked up, variant R105A)
# Eosinophil cationic protein: T1 sequence (P12724 28-160 H91A) with A64H, R105A
# B6: Q40A/H64A: double mutant recombinant ECP, Gln40 and His64 to Ala (protein, UniProt P12724 28-160, looked up, variant Q40A H64A)
# Eosinophil cationic protein: T1 sequence (P12724 28-160 H91A) with Q40A
# Experiments:
# [1] = biological target: T1, ECP H64A; assay: ITC of heparins with ECP H64A; type: binding; settings: ITC 25 °C, PBS pH 7.4
# Protocol: (§1) Thermodynamic analysis of wtECP and mutant ECPs to bind heparin was performed using a MicroCal iTC200 calorimeter (MicroCal, Northampton, USA) [38]. ECP was dialyzed against PBS before use and the same buffer was used to prepare heparin solutions. All experiments were performed at 25 °C, using ECP (20 μM, as protein) and heparin (200 μM). The protein solution was placed in a calorimeter cell and the heparin solution was loaded into the syringe injector. In individual titration, auto-controlled microsyringe injected 2 μL heparin solution into the protein solution with an interval of 120 sec. The integrated heat change was analyzed by means of non-linear regression using the MicroCal Origin software, and enthalpy change (ΔH), dissociation constant (K D), and stoichiometry value (N = X/M) were obtained from a single sigmoidal titration curve [39]. […] The effect of dilution of the heparin solution in the titration cell was removed by subtracting calorimetric data for a blank titration, which consisted of titration of heparin solution into PBS.
# [2] = system: EDN K38A; design: method as in earlier work; settings: calculated, Hep6 docked to EDN K38A; cited from earlier work
# [3] = system: EDN N39A; design: method as in earlier work; settings: calculated, Hep6 docked to EDN N39A; cited from earlier work
# [4] = system: EDN R36A; design: method as in earlier work; settings: calculated, Hep6 docked to EDN R36A; cited from earlier work
# [5] = system: EDN Q40A; design: method as in earlier work; settings: calculated, Hep6 docked to EDN Q40A; cited from earlier work
# [6] = system: EDN H129A; design: method as in earlier work; settings: calculated, Hep6 docked to EDN H129A; cited from earlier work
# [7] = system: EDN R132A; design: method as in earlier work; settings: calculated, Hep6 docked to EDN R132A; cited from earlier work
# [8] = biological target: T2, ECP Q40A/H64A; assay: ITC of heparins with ECP Q40A/H64A; type: binding; settings: ITC 25 °C, PBS pH 7.4
# Protocol: as §1
# [9] = biological target: T3, ECP R105A; assay: ITC of heparins with ECP R105A; type: binding; settings: ITC 25 °C, PBS pH 7.4
# Protocol: as §1
# [10] = system: EDN W7A; design: method as in earlier work; settings: calculated, Hep6 docked to EDN W7A; cited from earlier work
# [11] = system: EDN W10A; design: method as in earlier work; settings: calculated, Hep6 docked to EDN W10A; cited from earlier work
# [12] = system: EDN H15A; design: method as in earlier work; settings: calculated, Hep6 docked to EDN H15A; cited from earlier work
# [13] = biological target: T4, wtECP; assay: ITC of heparins with wtECP; type: binding; settings: ITC 25 °C, PBS pH 7.4
# Protocol: as §1
# [14] = system: EDN L130A; design: method as in earlier work; settings: calculated, Hep6 docked to EDN L130A; cited from earlier work
# [15] = system: EDN Q34A; design: method as in earlier work; settings: calculated, Hep6 docked to EDN Q34A; cited from earlier work
# [16] = system: EDN; settings: calculated, cited from earlier work
# [17] = biological target: T5, ECP Q40A; assay: ITC of heparins with ECP Q40A; type: binding; settings: ITC 25 °C, PBS pH 7.4
# Protocol: as §1
# [18] = system: EDN Q14A; design: method as in earlier work; settings: calculated, Hep6 docked to EDN Q14A; cited from earlier work
# [19] = system: yeast tRNA; assay: Ribonuclease activity, yeast tRNA digestion; type: biochemical; settings: yeast tRNA cleavage, 37 °C, 15 min, pH 7.4
# Protocol: Ribonuclease activities of recombinant wtECP and mutant ECPs were measured using yeast tRNA (Invitrogen, USA) digestion method, using bovine pancreatic RNaseA (USB, USA) as positive control. Three hundred microliters of 100 mM sodium phosphate buffer, pH 7.4, and 500 μl diethylpyrocarbonate-ddH2O were mixed with 50 μl 0.05 μM RNaseA and 5 μM wtECP or each mutant ECP separately. Ten microliters of 5 mg/ml yeast tRNA was added and incubated at 37 °C for 0, 5, 10 and 15 min. Ice-cold 500 μl stop solution (1:1, v/v, 40 mM lanthanum nitrate and 6% perchloric acid) was added and shaken for 10 min to stop reaction. Intact yeast tRNA was […] by centrifugation at 16,100 × g at 25 °C for 5 min. One hundred microliters of supernatant in each tube was placed on to a 96-well plate. The amount of soluble tRNA in supernatant was determined by A260 nm. The calculation has been described previously.
# [20] = system: yeast tRNA; design: method as in PMID 9649619; settings: cited from earlier work
# [21] = design: method as in PMID 9357326; settings: relative to EDN; cited from earlier work
molecule,measurement,setting,value
"O=C(O)[C@@H]1O[C@@H](O[C@H]2[C@H](O)[C@@H](NS(=O)(=O)O)[C@@H](O[C@H]3[C@H](O)[C@@H](OS(=O)(=O)O)C(O)O[C@H]3C(=O)O)O[C@@H]2COS(=O)(=O)O)[C@H](OS(=O)(=O)O)[C@@H](O)[C@@H]1O[C@H]1O[C@H](COS(=O)(=O)O)[C@@H](O[C@@H]2O[C@@H](C(=O)O)[C@@H](O[C@H]3O[C@H](COS(=O)(=O)O)[C@@H](O)[C@H](O)[C@H]3NS(=O)(=O)O)[C@H](O)[C@H]2OS(=O)(=O)O)[C@H](O)[C@H]1NS(=O)(=O)O (stereo partly drawn) [Hep6, [GlcNS(6S)-IdoA(2S)]3]",N (sites),[1],2.74 ± 0.3 sites
same,TΔS,[1],2 ± 0.3 kcal/mol
same,ΔG,[1],-7.7 kcal/mol and -7.7 ± 0.4 kcal/mol
same,ΔH,[1],-5.8 ± 0.4 kcal/mol
same,Binding energy,[2],-8.66 kcal/mol
same,Binding energy,[3],-8.98 kcal/mol
same,Binding energy,[4],-8.71 kcal/mol
same,Binding energy,[5],-8.50 kcal/mol
same,Binding energy,[6],-9.05 kcal/mol
same,Binding energy,[7],-8.81 kcal/mol
same,N (sites),[8],2.45 ± 0.1 sites
same,TΔS,[8],3.7 ± 0.1 kcal/mol
same,ΔG,[8],-7.5 kcal/mol and -7.5 ± 0.1 kcal/mol
same,ΔH,[8],-3.9 ± 0.2 kcal/mol
same,N (sites),[9],2.81 ± 0.1 sites
same,TΔS,[9],3.3 ± 0.1 kcal/mol
same,ΔG,[9],-7.9 kcal/mol and -7.9 ± 0.2 kcal/mol
same,ΔH,[9],-4.4 ± 0.2 kcal/mol
same,Binding energy,[10],-8.93 kcal/mol
same,Binding energy,[11],-8.88 kcal/mol
same,Binding energy,[12],-8.93 kcal/mol
same,N (sites),[13],1.77 ± 0.1 sites
same,TΔS,[13],4.8 ± 0.1 kcal/mol
same,ΔG,[13],-7.8 kcal/mol and -7.8 ± 0.1 kcal/mol
same,Binding energy,[14],-9.19 kcal/mol
same,Binding energy,[15],-8.88 kcal/mol
same,Binding energy,"[16]; Hep6 docked to wild type EDN, previous docking simulation data",-9.27 kcal/mol
same,Contribution,[16]; contribution of EDN H15 to Hep6 binding energy,-0.34 kcal/mol
same,Contribution,[16]; contribution of EDN K38 to Hep6 binding energy,-0.61 kcal/mol
same,Contribution,[16]; contribution of EDN L130 to Hep6 binding energy,-0.08 kcal/mol
same,Contribution,[16]; contribution of EDN N39 to Hep6 binding energy,-0.29 kcal/mol
same,Contribution,[16]; contribution of EDN Q14 to Hep6 binding energy,-0.46 kcal/mol
same,Contribution,[16]; contribution of EDN Q34 to Hep6 binding energy,-0.39 kcal/mol
same,Contribution,[16]; contribution of EDN Q40 to Hep6 binding energy,-0.77 kcal/mol
same,Contribution,[16]; contribution of EDN R36 to Hep6 binding energy,-0.56 kcal/mol
same,Contribution,[16]; contribution of EDN R132 to Hep6 binding energy,-0.46 kcal/mol
same,Contribution,[16]; contribution of EDN W7 to Hep6 binding energy,-0.34 kcal/mol
same,Contribution,[16]; contribution of EDN W10 to Hep6 binding energy,-0.39 kcal/mol
same,Contribution,[16]; contribution of EDN residue printed H120 (row H129A) to Hep6 binding energy,-0.22 kcal/mol
same,N (sites),[17],1.7 ± 0.1 sites
same,TΔS,[17],3.2 ± 0.2 kcal/mol
same,ΔG,[17],-7.6 kcal/mol and -7.6 ± 0.2 kcal/mol
same,ΔH,[17],-4.4 ± 0.3 kcal/mol
same,Binding energy,[18],-8.81 kcal/mol
B1,RNase activity,[19],1.1710 ± 0.0131 soluble tRNA/pmol
same,RNase activity,[19]; listed as bovine RNaseA,1.171 soluble tRNA/pmol
same,"RNase activity, reported number",[20],1.208 soluble tRNA/pmol
B2,RNase activity,[19],0.0049 soluble tRNA/pmol and 0.0049 ± 0.0001 soluble tRNA/pmol
same,Ribonucleolytic activity of EDN,[21],1%
B3,RNase activity,[19],0.0043 soluble tRNA/pmol and 0.0043 ± 0.0001 soluble tRNA/pmol
B4,RNase activity,[19],0.0068 soluble tRNA/pmol and 0.0068 ± 0.0001 soluble tRNA/pmol
B5,RNase activity,[19],0.0032 soluble tRNA/pmol and 0.0032 ± 0.0002 soluble tRNA/pmol
B6,RNase activity,[19],0.0056 soluble tRNA/pmol and 0.0056 ± 0.0002 soluble tRNA/pmol
